Source: PubChem BioAssay (NCI)
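Protocol summary: plate cells (96-well), add compound at 5 concentrations, incubate 48 h, interpolate endpoints linearly. The concentration for 50% growth inhibition is given as GI50. TGI marks complete inhibition of growth.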

Experiments:
Experiment in all cases: NCI anticancer screen, dose series, 48 h
NCI-H226 lung = system: NCI-H226 lung
NCI-H23 lung = system: NCI-H23 lung
NCI-H460 lung = system: NCI-H460 lung
NCI-H522 lung = system: NCI-H522 lung
NCI/ADR-RES ovarian = system: NCI/ADR-RES ovarian
OVCAR-3 ovarian = system: OVCAR-3 ovarian
OVCAR-4 ovarian = system: OVCAR-4 ovarian
OVCAR-5 ovarian = system: OVCAR-5 ovarian
OVCAR-8 ovarian = system: OVCAR-8 ovarian
PC-3 prostate = system: PC-3 prostate
RPMI-8226 leukemia = system: RPMI-8226 leukemia
RXF 393 renal = system: RXF 393 renal
SF-268 CNS = system: SF-268 CNS
SF-295 CNS = system: SF-295 CNS
SF-539 CNS = system: SF-539 CNS
SK-MEL-28 melanoma = system: SK-MEL-28 melanoma
SK-MEL-5 melanoma = system: SK-MEL-5 melanoma
SK-OV-3 ovarian = system: SK-OV-3 ovarian
SN12C renal = system: SN12C renal
SNB-19 CNS = system: SNB-19 CNS
SR leukemia = system: SR leukemia
SW-620 colon = system: SW-620 colon
T-47D breast = system: T-47D breast
TK-10 renal = system: TK-10 renal
U251 CNS = system: U251 CNS
UACC-257 melanoma = system: UACC-257 melanoma
UACC-62 melanoma = system: UACC-62 melanoma
UO-31 renal = system: UO-31 renal

COc1ccc(Cn2cc3c(c2-c2cc(OC)c(OC)c(OC)c2)CCc2cnoc2-3)cc1N
GI50 (NCI-H226 lung): 0.537 µM
TGI (NCI-H226 lung): > 100 µM
GI50 (NCI-H23 lung): 0.0507 µM
TGI (NCI-H23 lung): > 100 µM
GI50 (NCI-H460 lung): 0.0377 µM
TGI (NCI-H460 lung): 5.22 µM
GI50 (NCI-H522 lung): 0.018 µM
TGI (NCI-H522 lung): 0.058 µM
GI50 (NCI/ADR-RES ovarian): 0.0357 µM
TGI (NCI/ADR-RES ovarian): > 100 µM
GI50 (OVCAR-3 ovarian): 0.026 µM
TGI (OVCAR-3 ovarian): 0.0631 µM
GI50 (OVCAR-4 ovarian): 0.103 µM
TGI (OVCAR-4 ovarian): > 100 µM
GI50 (OVCAR-5 ovarian): 0.324 µM
TGI (OVCAR-5 ovarian): > 100 µM
GI50 (OVCAR-8 ovarian): 0.0702 µM
TGI (OVCAR-8 ovarian): > 100 µM
GI50 (PC-3 prostate): 0.0751 µM
TGI (PC-3 prostate): > 100 µM
GI50 (RPMI-8226 leukemia): 0.0489 µM
GI50 (RXF 393 renal): 0.0319 µM
TGI (RXF 393 renal): > 100 µM
GI50 (SF-268 CNS): 0.0792 µM
TGI (SF-268 CNS): > 100 µM
GI50 (SF-295 CNS): 0.0369 µM
TGI (SF-295 CNS): > 100 µM
GI50 (SF-539 CNS): 0.0344 µM
TGI (SF-539 CNS): > 100 µM
GI50 (SK-MEL-28 melanoma): 0.0797 µM
TGI (SK-MEL-28 melanoma): > 100 µM
GI50 (SK-MEL-5 melanoma): 0.0325 µM
TGI (SK-MEL-5 melanoma): 1.24 µM
GI50 (SK-OV-3 ovarian): 0.0447 µM
TGI (SK-OV-3 ovarian): > 100 µM
GI50 (SN12C renal): 0.0795 µM
TGI (SN12C renal): > 100 µM
GI50 (SNB-19 CNS): 0.0621 µM
TGI (SNB-19 CNS): > 100 µM
GI50 (SR leukemia): 0.032 µM
TGI (SR leukemia): 1.39 µM
GI50 (SW-620 colon): 0.038 µM
TGI (SW-620 colon): > 100 µM
GI50 (T-47D breast): 0.034 µM
TGI (T-47D breast): > 100 µM
GI50 (TK-10 renal): 0.0689 µM
TGI (TK-10 renal): > 100 µM
GI50 (U251 CNS): 0.0523 µM
TGI (U251 CNS): > 100 µM
GI50 (UACC-257 melanoma): > 23.1 µM
TGI (UACC-257 melanoma): > 100 µM
GI50 (UACC-62 melanoma): 0.0447 µM
TGI (UACC-62 melanoma): > 86.9 µM
GI50 (UO-31 renal): 0.228 µM
TGI (UO-31 renal): > 50.9 µM
